# Like-named read-outs stand apart in the source and are kept apart here.
# Columns and labels:
# α3β2 nAChR = α3β2 nAChR (Rattus norvegicus (Rat), UniProt P04757+P12390); experiment: [3H]-epibatidine competition binding, α3β2; conditions: Table 1; mean of 3 to 5 measurements
# Description: (§1) In Vitro Binding Affinities for nAChR Subtypes. […] To determine selectivities of these compounds in binding assays among the three predominant nAChR subtypes, α3β4, α4β2 and α7, the ratios of Ki values (α3β4/α4β2 and α7/α4β2) were determined.
# (§2) Cell Lines and Cell Culture. The cell lines expressing defined rat nAChR subtypes were established previously by stably transfecting HEK 293 cells with rat nAChR subunit genes. The cell line expressing human α4β2 nAChRs, YXα4β2H1, was established recently. These cell lines were maintained in minimum essential medium (MEM) supplemented with 10% fetal bovine serum, 100 units/mL penicillin G, […] and selective antibiotics at 37° C. with 5% CO2 in a humidified incubator. Fetal bovine serum was provided by Gemini Bio-Products (Woodland, Calif.). […]
# (§3) Briefly, cultured cells at >80% confluence were removed from their flasks (80 cm^2) with a disposable cell scraper and placed in 10 mL of 50 mM Tris.HCl buffer (pH 7.4, 4° C.). […] The filter-retained radioactivity was measured by liquid scintillation counting. […] Data from competition binding assays were analyzed using Prism 5 (GraphPad Software, San Diego, Calif.).
# (§4) Pharmacological Properties. We measured the in vitro binding affinities of the ligands for defined receptor subtypes (α2β2, α2β4, α3β2, α3β4, α4β2, α4β4, α6β2, α6β4, and α7) expressed in stably transfected cell lines. […]
# human α4β2 nAChRs = human α4β2 nAChRs (Homo sapiens (Human), UniProt P17787+P43681); experiment: 86Rb+ efflux assay (activation and desensitization), α4β2; assay type: cell-based; conditions: for IC50: desensitization
# Description: (§5) In Vitro Effects on nAChR Function. […] Their agonist activities were assessed by measuring stimulated ^86Rb^+ efflux from stably transfected cells, either expressing human α4β2 nAChRs or rat α3β4 receptors.
# (§6) Cell Lines and Cell Culture. The cell lines expressing defined rat nAChR subtypes were established previously by stably transfecting HEK 293 cells with rat nAChR subunit genes. The cell line expressing human α4β2 nAChRs, YXα4β2H1, was established recently. These cell lines were maintained in minimum essential medium (MEM) supplemented with 10% fetal bovine serum, 100 units/mL penicillin G, […] and selective antibiotics at 37° C. with 5% CO2 in a humidified incubator. Fetal bovine serum was provided by Gemini Bio-Products (Woodland, Calif.). Tissue culture medium and antibiotics were obtained from Invitrogen Corporation (Carlsbad, Calif.), unless otherwise stated.
# (§7) ^86Rb^+ Efflux Assay. Functional properties of compounds at nAChRs expressed in the transfected cells were measured using ^86Rb^+ efflux assays as described previously. In brief, cells expressing human α4β2 or rat α3β4 nAChRs were plated into 24-well plates coated with poly-D-lysine. The plated cells were grown at 37° C. for 18 to 24 hour to reach 85-95% confluence. The cells were then incubated in growth medium (0.5 mL/well) containing ^86Rb^+ (2 μCi/mL) for 4 hour at 37° C. The loading mixture was then aspirated, and the cells were washed four times with 1 mL buffer (15 mM HEPES, 140 mM NaCl, 2 mM KCl, 1 mM MgSO4, 1.8 mM CaCl2, 11 mM Glucose, pH 7.4). One mL of buffer with or without compounds to be tested was then added to each well. After incubation for 2 min, the assay buffer was collected for measurements of ^86Rb^+ released from the cells. Cells were then lysed by adding 1 mL of 100 mM NaOH to each well, and the lysate was collected for determination of the amount of ^86Rb^+ that was in the cells at the end of the efflux assay. Radioactivity of assay samples and lysates was measured by liquid scintillation counting. Total loading (cpm) was calculated as the sum of the assay sample and the lysate of each well. The amount of ^86Rb^+ efflux was expressed as a percentage of ^86Rb^+ loaded. […] For obtaining EC50 and Emax values, stimulation curves were constructed in which 8 different concentrations of a ligand were included in the assay. […] EC50, Emax and IC50(10′) values were determined by nonlinear least-squares regression analyses (GraphPad, San Diego, Calif.).
# (§8) The functional properties of the ligands were determined by ^86Rb^+ efflux assays in cells expressing α3β4 and α4β2 nAChR subtypes. The functional activity of each ligand was measured for its agonism, antagonism and desensitization ability. Agonist activity for each of the ligands was tested at eight different concentrations. […] The full concentration-effect curves generated potency (EC50) and efficacy (Emax) of each ligand. […] We tested each ligand for antagonist activity at eight concentrations. The potency (IC50(0′)) of each ligand as an antagonist was derived from the full concentration-effect curves.
# α7 nAChR = α7 nAChR (Rattus norvegicus (Rat), UniProt Q05941); assay type: binding
# Description: as §1, §6
# (§9) Briefly, cultured cells at >80% confluence were removed from their flasks (80 cm^2) with a disposable cell scraper and placed in 10 mL of 50 mM Tris.HCl buffer (pH 7.4, 4° C.). The cell suspension was centrifuged at 10,000×g for 5 min and the pellet was collected. The cell pellet was then homogenized in 10 mL buffer with a polytron homogenizer and centrifuged at 36,000 g for 10 min at 4° C. The membrane pellet was resuspended in fresh buffer, and aliquots of the membrane preparation were used for binding assays. […] Bound and free ligands were separated by vacuum filtration through Whatman GF/C filters treated with 0.5% polyethylenimine. The filter-retained radioactivity was measured by liquid scintillation counting. Specific binding was defined as the difference between total binding and nonspecific binding. Data from competition binding assays were analyzed using Prism 5 (GraphPad Software, San Diego, Calif.).
# (§10) Pharmacological Properties. We measured the in vitro binding affinities of the ligands for defined receptor subtypes (α2β2, α2β4, α3β2, α3β4, α4β2, α4β4, α6β2, α6β4, and α7) expressed in stably transfected cell lines. […] Rat forebrain homogenates were included to allow comparison between the heterologous and native α4β2 and α7 nAChRs. See Table 1 for binding affinity values (Ki) of the ligands at the three major nAChR subtypes (α3β4. α4β2 and α7).
# α4β2 nAChR = α4β2 nAChR (Rattus norvegicus (Rat), UniProt P09483+P12390); experiment: biochemical; assay type: binding; conditions: for Ki: read-out: Ki α4β2
# Description: as §1, §6, §9, §10
# α2β4 nAChR = α2β4 nAChR (Rattus norvegicus (Rat), UniProt P12389+P12392); experiment: [3H]-epibatidine competition binding, α2β4; conditions: Table 1; mean of 3 to 5 measurements
# Description: as §1, §2, §3, §4
# rat α3β4 nAChRs = rat α3β4 nAChRs (Rattus norvegicus (Rat), UniProt P04757+P12392); experiment: 86Rb+ efflux assay (activation and desensitization), α3β4; assay type: cell-based
# Description: as §5, §6, §7, §8
# α3β4 nAChR = α3β4 nAChR (Rattus norvegicus (Rat), UniProt P04757+P12392); experiment: [3H]-epibatidine competition binding, α3β4
# Description: as §1, §6, §9, §10
# α2β2 nAChR = α2β2 nAChR (Rattus norvegicus (Rat), UniProt P12389+P12390); experiment: [3H]-epibatidine competition binding, α2β2; conditions: Table 1; mean of 3 to 5 measurements
# Description: as §1, §2, §3, §4
# α4β4 nAChR = α4β4 nAChR (Rattus norvegicus (Rat), UniProt P09483+P12392); experiment: [3H]-epibatidine competition binding, α4β4; conditions: Table 1; mean of 3 to 5 measurements
# Description: as §1, §2, §3, §4
# [1] = Table 1, mean of 3 to 5 measurements
structure (smiles),measurement,setting,value
"Cc1ncc(C#CCCCCCl)cc1OC[C@@H]1CCN1 [(S)-21, (S)-3-(azetidin-2-ylmethoxy)-5-(6-chlorohex-1-ynyl)-2-methylpyridine]",Ki,α3β2 nAChR,0.3 µM
same,Emax α4β2 nAChRs,"human α4β2 nAChRs; agonist efficacy normalized to Emax of nicotine, ND = no significant stimulated efflux detected",didn't show detectable agonist activity
same,IC50,"human α4β2 nAChRs; 10 min pre-treatment, Table 3 (Example 4), read-out: IC50(10′) α4β2",0.27 µM
same,IC50,"human α4β2 nAChRs; 10 min pre-incubation before 100 μM nicotine, Table 2, read-out: IC50(10′) α4β2 nAChRs",0.26 µM
same,Ki,α7 nAChR; [1],67 µM
same,Ki,α7 nAChR; Table 3 (Example 4),67.2 µM
same,Ki,α4β2 nAChR; [1],0.0053 µM
same,Ki,α4β2 nAChR; Table 3 (Example 4),0.0047 µM
same,Ki Ratio α3β4/α4β2,α4β2 nAChR; selectivity for α4β2 over α3β4,"17,000"
same,Ki Ratio α7/α4β2,α4β2 nAChR; selectivity for α4β2 over α7,"13,000"
same,Ki,α2β4 nAChR,29 µM
same,IC50,rat α3β4 nAChRs; read-out: IC50(10′) α3β4,11 µM
same,IC50,rat α3β4 nAChRs; read-out: IC50(10′) α3β4 nAChRs,> 10 µM
same,Ki,α3β4 nAChR; [1],92 µM
same,Ki,α3β4 nAChR; Table 3 (Example 4),86 µM
same,Ki,α2β2 nAChR,0.0086 µM
same,Ki,α4β4 nAChR,3.7 µM

# Source: US9303017B2, “2,5-disubstituted-pyridyl nicotinic ligands, and methods of use thereof” (Georgetown University, priority 2011, dated 2016)
